Patent US8183383B2, “Protein tyrosine phosphatase 1B inhibitor, preparation methods and uses thereof” (Shanghai Institute of Materia Medica, Chinese Academy of …, priority 2007, dated 2012)
Where two headings read alike, the source gives them in different places.

How the values were obtained:
hPTP1B [1] = target: T1, hPTP1B (Homo sapiens, UniProt P18031); conditions: positive control; literature reference Seto et al. J. Med. Chem. 2002; cited from earlier work
T1 construct: The catalytic structural domain of hPTP1B was expressed in E-coli system by a molecular biology protocol; made in house; host or cells: E. coli
T1 sequence (P18031 3-277 limits assumed): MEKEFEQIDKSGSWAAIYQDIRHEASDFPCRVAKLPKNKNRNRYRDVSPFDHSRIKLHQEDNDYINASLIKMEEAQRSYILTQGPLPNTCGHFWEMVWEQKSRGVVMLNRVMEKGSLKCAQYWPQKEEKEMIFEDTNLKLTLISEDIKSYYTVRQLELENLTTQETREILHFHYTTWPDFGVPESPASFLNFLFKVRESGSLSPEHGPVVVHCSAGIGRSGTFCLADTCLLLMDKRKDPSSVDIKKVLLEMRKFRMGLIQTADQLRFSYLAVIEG

hPTP1B [2] = target: T1, hPTP1B; experiment: PTP1B inhibition test (pNPP hydrolysis, absorption at 410 nm); assay type: biochemical; conditions: recombinant hPTP1B catalytic domain 40 nM, 2 mM pNPP, pH 7.0, 2% DMSO; read-out: IC50(μM), inhibitory activity of the test compounds against PTP1B
From the text: 1) Test principle: The catalytic structural domain of hPTP1B was expressed in E-coli system by a molecular biology protocol. The purified hPTP1B recombinant protein can hydrolyze the phosphoester linkage of the pNPP substrate to obtain a product which has a strong light absorption at 410 nm. Therefore, the variation of the enzyme activity and the inhibitory activity of a compound against the enzyme can be observed by directly monitoring the changes in the light absorption at 410 nm. A typical activity assay system is as follows: 50 mM Mops, PH 7.0, 1 mM EDTA, 2 mM DTT, 2 mM PNPP, 2% DMSO, 40 nM hPTP1B.
2) Measuring Index: The light absorption was dynamically measured at 410 nm for 3 min. The slope of the first-order reaction of the dynamic curve thereof was considered as the activity index of the enzymes.
3) Measurement: • 1. 1 mg sample was dissolved in 200 μL DMSO. To each wall of the A2-H11 of a 96-wells polypropylene plate, 20 μL of the solution was added, followed by addition of 80 μL DMSO. The plate was used as mother plate. • 2. To each corresponding wall of a 96-wells polypropylene plate, 2 μL of sample was added with a Biomek 2000 automation workstation. The plate was used as daughter plate for screening. • 3. To each wall of A1-D1 and E12-H12, 2 μL, DMSO was added. These walls were regarded as 100% of enzyme activity for control. • 4. To each wall of A12-D12 and E1-H1, 2 μL positive control with different concentrations (four concentrations prepared by double-fold dilution from […]) was added respectively. • 5. To each wall of A1-H12, 88 μL Assay mix was added respectively. • 6. To each wall of A1-H12, 10 μL hPTP1B was added respectively. • 7. The light absorption was measured at 410 nm for 3 min on a SpectraMAX 340 spectrometer. • 8. Exporting the output into a TXT file, and opening the file with Excel. The average of the Vmax values of A1-D1 and E12-H12 was considered as 100% of enzyme activity.
4) Results: The screening results were the % inhibitory rate against the enzyme when the compound concentration was 20 μg/mL. 1050 value was calculated according to a conventional screening when the inhibitory rate exceeded 50%. The […] value of the positive control, 4-[4-(4-oxalyl-phenoxymethyl)-benzyloxy]-phenyl-oxo-acetic acid, is 5.4 μM [Christopher T. Seto, et al. J. Med. Chem., 2002, 45, 3946-3952].

[3] = tested on: insulin receptors (IRs) in CHO/IR cells; experiment: Effect on the phosphorylation level of insulin receptors in CHO/IR cells; assay type: cell-based; conditions: CHO/IR cells, 0.21, 0.43, 0.85, 1.70 μM, 10 nM insulin stimulation, FIG. 1
From the text: 1). Experimental principle: The phosphorylation levels of insulin receptors (IRs) in cells sensitive to insulin are regulated by PTK and PTPase. PTP1B is a negative regulator during the process. It can be evaluated by measuring the phosphorylation level of IRs in CHO/IR cells whether the PTP inhibitor has entered into the cells and how its effect in cells is.
2). Experimental Protocol: • 1. Cell inoculation: Cells in good growth condition were inoculated into a 6-well plate with a density of 3-4×10^5 cells/well. To each well was added 2 mL F12 culture media containing 10% FBS. • 2. Starvation: After cultivation for 24 h, to each well was added 2 mL serum-free F12 culture media. Then the plate was cultivated overnight. • 3. Administration: After removing the old culture media, to each well was added 0.9 mLserum-free F12 culture media containing the test compound, wherein 1 mM Na3VO4 and 0.1% DMSO were used as positive and negative control, respectively. The plate was incubated for 2-4 h. • 4. Insulin stimulation: To each well was added 100 μL 100 nM insulin solution so that the final concentration was 10 nM. The reaction was carried out for 10 min. • 5. Sample collection: After discarding the culture media, to each well was added 150 μL×1 loading buffer. […]
3). Experimental results: The experiment evaluated the effect of WY586s on the phosphorylation levels of insulin receptors in CHO/IR cells. […]

| IC50 (hPTP1B [2]) | SMILES | IC50 (hPTP1B [1]) | phosphorylation level of IR (p-IR) [3] |
| --- | --- | --- | --- |
|  | O=C(O)C(=O)c1ccc(OCc2ccc(COc3ccc(C(=O)C(=O)O)cc3)cc2)cc1 [4-[4-(4-oxalyl-phenoxymethyl)-benzyloxy]-phenyl-oxo-acetic acid] | 5.4 µM |  |
| 2.48 µM | CCOC(=O)/C(C)=C\C(C)=C\c1csc([C@H](Cc2ccc(OCc3ccccc3)cc2)NC(=O)CC2CCCCC2)n1 [WY586s] |  | significantly increases with the increase of the concentration of the inhibitor |
| 10.9 µM | CCOC(=O)/C(C)=C\C(C)=C\c1csc([C@H](Cc2ccc(OCc3ccccc3)cc2)NC(=O)C(=O)c2cccs2)n1 [WY600t] |  |  |
| 13.5 µM | CCOC(=O)/C(C)=C\C(C)=C\c1csc([C@H](Cc2ccc(OCc3ccccc3)cc2)NC(=O)C(O)C2CCCCC2)n1 (stereo partly drawn) [WY602-2] |  |  |
| 25.6 µM | CCOC(=O)/C(C)=C\C(C)=C\c1csc([C@H](Cc2ccc(OCc3ccc(OC)cc3)cc2)NC(=O)C2CCCCC2)n1 [WY602h] |  |  |
| 9.42 µM | CCOC(=O)/C(C)=C\C(C)=C\c1csc([C@H](Cc2ccc(OCc3ccccc3)cc2)NC(=O)COCc2ccccc2)n1 [WY610s] |  |  |
| 5.13 µM | CCOC(=O)/C(C)=C\C(C)=C\c1csc([C@H](Cc2ccc(OCc3ccccc3)cc2)NC(=O)C(=O)c2ccc(F)cc2)n1 [WY612] |  |  |
| 6.47 µM | CCOC(=O)/C(C)=C\C(C)=C\c1csc([C@H](Cc2ccc(OCc3ccccc3)cc2)NC(=O)N2CCC(C(=O)O)CC2)n1 [WY617a] |  |  |
| 4 µM | C/C(=C/C(C)=C/c1nc([C@H](Cc2ccc(OCc3ccccc3)cc2)NC(=O)C2CCCCC2)sc1-c1ccccc1)C(=O)O [WY620a] |  |  |
| > 35 µM | CCOC(=O)/C(C)=C\C(C)=C\c1csc([C@H](Cc2ccc(Oc3ccc([N+](=O)[O-])cc3F)cc2)NC(=O)C2CCCCC2)n1 [WY621h] |  |  |
| > 35 µM | CCOC(=O)/C(C)=C\C(C)=C\c1csc([C@H](Cc2ccc(OCc3ccc4ccccc4c3)cc2)NC(=O)C2CCCCC2)n1 [WY622h] |  |  |
| 25.6 µM | CCOC(=O)/C(C)=C\C(C)=C\c1csc([C@H](Cc2ccc(OCc3ccccc3)cc2)NC(=O)c2cc3ccccc3s2)n1 [WY622s] |  |  |
| 10.5 µM | CCOC(=O)/C(C)=C\C(C)=C\c1nc([C@@H](Cc2ccc(OCc3ccccc3)cc2)NC(=O)C2CCCCC2)sc1CC(C)C [WY628z2] |  |  |
| 6.68 µM | CCOC(=O)/C(C)=C\C(C)=C\c1nc([C@H](Cc2ccc(OCc3ccccc3)cc2)NC(=O)C2CCCCC2)sc1CC(C)C [WY628z] |  |  |
| 3.97 µM | C/C(=C/C(C)=C/c1nc([C@H](Cc2ccc(OCc3ccccc3)cc2)NC(=O)CC2CCCCC2)sc1-c1ccccc1)C(=O)O [WY634a] |  |  |
| 4.1 µM | CCOC(=O)/C(C)=C\C(C)=C\c1csc([C@H](Cc2ccc(OCc3ccccc3)cc2)NC(=O)C(=O)COCc2ccccc2)n1 [WY638] |  |  |
| 10.5 µM | CCOC(=O)/C(C)=C\C(C)=C\c1csc([C@H](Cc2ccc(OCc3ccccc3)cc2)NC(=O)N2CCC(C(=O)OCC)CC2)n1 [WY645s] |  |  |
| 3.3 µM | CCOC(=O)/C(C)=C\C(C)=C\c1nc([C@H](Cc2ccc(OCc3ccccc3)cc2)NC(=O)C2CCCCC2)sc1-c1ccccc1 [WY648z] |  |  |
| 9.98 µM | CCOC(=O)/C(C)=C\C(C)=C\c1csc([C@H](Cc2ccc(OCc3ccccc3)cc2)NC(=O)C(OCc2ccccc2)C(C)C)n1 (stereo partly drawn) [WY652s] |  |  |
| 6.29 µM | CCOC(=O)/C(C)=C\C(C)=C\c1csc([C@H](Cc2ccc(OCc3ccccc3)cc2)NC(=O)N[C@@H](Cc2ccc(OCc3ccccc3)cc2)c2nc(/C=C(C)/C=C(/C)C(=O)OCC)cs2)n1 [WY951] |  |  |
